Assay results as given in patent US9815815B2, “Non-selective kinase inhibitors” (GILEAD SCIENCES, INC., priority 2013, dated 2017).

Tests used:
[1] = tested on: PDGFBB stimulated AKT phosphorylation; assay: In cell Western (ICW), PDGFBB stimulated AKT phosphorylation in human fetal lung fibroblasts; assay type: cell-based; details: comparison in words
Method: In cell Western (ICW). […] HLFs were maintained in subculture at no more than 6 passages in DMEM with 5% FBS and 4 mM Glutamax at 37° C., 5% CO2. HLFs were plated and grown to 70-80% confluence in 96 well plates then serum-starved for 48 hours. […] Antibodies were detected using IRDye 680LT goat anti-mouse IgG and IRDye 800W goat a-rabbit IgG conjugated antibodies. After washing, the signal was quantified using an Odyssey Infrared Imaging System (LI-COR). Phosphoprotein signal (800 nm) was normalized to total protein signal (700 nm) acquired from each well and experimental duplicates on same plate were averaged and reported.

[2] = tested on: PDGFAA stimulated phosphorylation of ERK1 and ERK2; assay: PDGFAA stimulated phosphorylation of ERK1 and ERK2 in human fetal lung fibroblasts; assay type: cell-based; details: 1 uM
[3] = tested on: PDGFBB stimulated phosphorylation of ERK1 and ERK2; assay: PDGFBB stimulated phosphorylation of ERK1 and ERK2 in human fetal lung fibroblasts; assay type: cell-based; details: for PDGFBB stimulated ppERK1 formation: 1 uM
rat MCT+PN model = assay: Telemetry study of PA pressure in the rat MCT+PN model; assay type: in vivo; details: for PA systolic pressure: imatinib telemetry study (study 4), 8 min 3x/day
Method: Efficacy study in the rat MCT+PN model. Pneumonectomy and implantation of a TRM53P telemetry monitor in the pulmonary artery (Telemetry Research, New Zealand and ADlnstruments, Colorado) was carried out in rats. Two weeks after MCT, PK10453 (Structure 2) was administered three times daily for 1 week. […] Sampling of PA pressure was performed 5 min before each morning dose in ambulatory animals in room air (estimated atmospheric pressure 716 mm Hg based on elevation of animal facility). […] Telemetry data was obtained for 10 min daily before each morning dose for this protocol.

AKT phosphorylation = details: 0.1 μM; PASMC from control and monocrotaline treated rats; cited from earlier work
[4] = tested on: PDGFBB stimulated AKT phosphorylation (SER473); details: 5 μM; PDGFRβ null and PDGFRα null cell lines; cited from earlier work

Method for rat MCT model: At the end of the study RVSP pressure was measured; lung and heart fixed in formalin. For measurement of RVSP animals were sedated with isoflurane, intubated via a tracheostomy, and ventilated with a TOPOVENT pressure regulated ventilator (peak inspiratory pressure 18 cm H2O, PEEP 5 cm). After sternotomy, a Scisense high fidelity catheter inserted via the RV apex.
Histology and morphometric analysis. At the end of the study, the heart and lungs were removed from ventilated animals under general anesthesia. Heparinized saline was infused under pressure through the main pulmonary artery. […] The heart was removed, and the RV free wall, interventricular septum and LV free wall dissected and weighed. Buffered formalin (10%) was infused under pressure both through the pulmonary artery and the trachea. Morphometric analysis was performed on H&E stained formalin fixed tissue sectioned at 8 μm. The media area and lumen area of pulmonary arterioles were measured with Image J software by a technician blinded to treatment group. Measurements were made on 20 pulmonary arterioles per section. The ratio of the lumen area to the total media area was determined This ratio normalizes the variation in total pulmonary arteriole area. […] Briefly, pre-capillary arterioles were assigned grade 0 for no evidence of neointimal lesions, grade 1 for less than 50% luminal occlusion, and grade 2 for greater than 50% occlusion.

With COc1cc(-c2cncc(N[C@@H](C)c3cccc(NC(=O)c4cnc(C#N)nc4)c3)n2)ccc1O [PK10467] the “IC50 for inhibiting PDGFBB stimulated AKT phosphorylation, compared to imatinib” value [1] was “lower IC50 concentrations compared to imatinib”.
In the case of COc1ccc(-c2cncc(N[C@@H](C)c3cccc(NC(=O)c4cncc(C)c4)c3)n2)cc1OC [PK10571], the “IC50 for inhibiting PDGFBB stimulated AKT phosphorylation, compared to imatinib” value [1] is reported as “lower IC50 concentrations compared to imatinib”, the “decreasing PDGF AA stimulated ppERK1 and ppERK2 formation” value [2] is reported as “equally effective” and the “PDGFBB stimulated ppERK1 formation” value [3] is reported as “effective”. For the same compound, the “decreasing PDGF BB stimulated ppERK1 and ppERK2, compared to imatinib” value ([3]; 1 uM and 10 uM) was “more effective”, the “ratio diphosphorylated ERK2 to total ERK2 (ppERK2/ERK2)” value ([3]; PDGFAA or PDGFBB stimulation (10 ng/ml), 1 uM and 10 uM) was “significantly decreased” and the “ratio diphosphorylated ERK1 to total ERK1 (ppERK1/ERK1)” value ([3]; PDGFAA or PDGFBB stimulation, 1 μM and 10 μM) was “significantly decreased”.
In the case of Cc1ccc(NC(=O)c2ccc(CN3CCN(C)CC3)cc2)cc1Nc1nccc(-c2cccnc2)n1 [Imatinib], the “efficacy in the MCT+PN model, in words” value (rat MCT+PN model; by inhalation) is reported as “not effective”, the PA systolic pressure (rat MCT+PN model; day 1) is reported as 41.5±3.5 mm Hg and the PA systolic pressure (rat MCT+PN model; treatment day 9) is reported as 75.1±7 mm Hg. The “phosphorylation of AKT at Thr308” value (AKT phosphorylation) was “no effect”, the “PDGFBB stimulated AKT phosphorylation (SER473)” value [4] was “blocked” and the “decreasing PDGF AA stimulated ppERK1 and ppERK2 formation” value [2] was “equally effective”. For the same compound, the “PDGFBB stimulated ppERK1 formation” value [3] was “no effect”, the “RV end systolic pressure” value (rat MCT model; 8 min inhalation 3x/day, two weeks) was 31.8±1.8 mm Hg and the “efficacy in the MCT model, in words” value (rat MCT model; given by inhalation) was “equally effective”.
For C=CS(=O)(=O)NCc1ccc(C(=O)Nc2cccc([C@H](C)Nc3cncc(-c4ccc(O)c(OC)c4)n3)c2)cc1 [PK10468], the “IC50 for inhibiting PDGFBB stimulated AKT phosphorylation, compared to imatinib” value [1] was “lower IC50 concentrations compared to imatinib”.
In the case of COc1cc(-c2cncc(N[C@@H](C)c3cccc(NC(=O)c4cncc(C)c4)c3)n2)ccc1C [PK10569], the “IC50 for inhibiting PDGFBB stimulated AKT phosphorylation, compared to imatinib” value [1] is reported as “lower IC50 concentrations compared to imatinib”.
